Reference: ChEMBL document CHEMBL1122392, “C4-substituted 1-beta-D-ribofuranosylpyrazolo[3,4-d]pyrimidines as adenosine agonist analogues” (J Med Chem, 1983)

How the values were obtained:
[1] = molecular target: Adenosine receptor (Rattus norvegicus, UniProt P29276+P25099+P30543+P28647); experiment: Displacement of [3H]CHA from rat brain adenosine receptor
[2] = molecular target: Adenosine receptor (Rattus norvegicus) (UniProt P29276+P25099+P30543+P28647); experiment: Displacement of [3H]CHA from rat brain adenosine receptor at 10e-4 M
Sequence of Adenosine receptor (Rattus norvegicus) (P25099 whole entry, looked up): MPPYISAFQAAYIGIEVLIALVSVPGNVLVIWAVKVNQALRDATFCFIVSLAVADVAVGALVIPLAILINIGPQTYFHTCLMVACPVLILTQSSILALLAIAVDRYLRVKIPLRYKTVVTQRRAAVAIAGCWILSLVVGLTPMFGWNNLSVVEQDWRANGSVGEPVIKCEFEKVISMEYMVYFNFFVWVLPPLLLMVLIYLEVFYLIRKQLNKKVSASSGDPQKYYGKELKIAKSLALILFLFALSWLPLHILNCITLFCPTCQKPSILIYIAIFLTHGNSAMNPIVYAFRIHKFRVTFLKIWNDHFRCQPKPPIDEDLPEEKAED
Sequence of Adenosine receptor (Rattus norvegicus) (P28647 whole entry, looked up): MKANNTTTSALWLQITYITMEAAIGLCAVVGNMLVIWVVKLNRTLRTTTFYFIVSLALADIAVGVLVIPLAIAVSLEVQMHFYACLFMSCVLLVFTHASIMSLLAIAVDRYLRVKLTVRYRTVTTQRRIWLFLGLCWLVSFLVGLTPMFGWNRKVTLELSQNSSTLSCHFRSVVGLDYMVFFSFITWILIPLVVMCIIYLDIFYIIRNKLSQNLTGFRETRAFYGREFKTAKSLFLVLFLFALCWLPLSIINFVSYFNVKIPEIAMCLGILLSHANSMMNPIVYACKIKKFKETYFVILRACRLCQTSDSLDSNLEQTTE
Sequence of Adenosine receptor (Rattus norvegicus) (P29276 whole entry, looked up): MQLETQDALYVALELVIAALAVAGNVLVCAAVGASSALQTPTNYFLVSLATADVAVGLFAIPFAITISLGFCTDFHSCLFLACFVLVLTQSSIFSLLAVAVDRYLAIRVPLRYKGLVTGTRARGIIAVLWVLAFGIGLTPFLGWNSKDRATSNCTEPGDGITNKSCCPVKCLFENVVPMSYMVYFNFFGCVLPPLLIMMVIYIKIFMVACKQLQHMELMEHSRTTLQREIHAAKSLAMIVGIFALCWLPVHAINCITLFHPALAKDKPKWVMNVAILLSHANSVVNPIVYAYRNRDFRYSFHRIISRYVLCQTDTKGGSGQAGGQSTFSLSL
Sequence of Adenosine receptor (Rattus norvegicus) (P30543 whole entry, looked up): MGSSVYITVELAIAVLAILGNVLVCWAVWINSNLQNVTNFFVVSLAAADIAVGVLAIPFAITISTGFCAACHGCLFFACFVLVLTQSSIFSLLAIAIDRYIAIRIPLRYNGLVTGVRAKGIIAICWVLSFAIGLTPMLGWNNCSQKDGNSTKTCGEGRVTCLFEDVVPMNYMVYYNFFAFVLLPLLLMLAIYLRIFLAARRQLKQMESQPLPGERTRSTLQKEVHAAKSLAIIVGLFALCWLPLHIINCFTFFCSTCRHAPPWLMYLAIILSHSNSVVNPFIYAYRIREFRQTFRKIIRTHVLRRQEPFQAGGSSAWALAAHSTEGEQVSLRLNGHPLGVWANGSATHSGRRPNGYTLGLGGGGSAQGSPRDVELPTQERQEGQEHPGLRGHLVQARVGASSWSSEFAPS

| IC50 [1] | inhibition [2] | Compound |
| --- | --- | --- |
| 20.2 µM |  | OC[C@H]1OC(n2ncc3c(NC4CCCCC4)ncnc32)[C@H](O)[C@@H]1O (stereo not given in full) |
|  | 47% | C[C@@H](Cc1ccccc1)Nc1ncnc2c1cnn2[C@@H]1O[C@H](CO)[C@@H](O)[C@H]1O (stereo in doubt; 1) |
| 0.004 µM |  | CCCNc1ncnc2c1ncn2C1O[C@H](CO)[C@@H](O)[C@H]1O (stereo not given in full) |
|  | 31% | C[C@@H](Cc1ccccc1)Nc1ncnc2c1cnn2[C@@H]1O[C@H](CO)[C@@H](O)[C@H]1O (stereo in doubt) |
| 76.5 µM |  | CCCNc1ncnc2c1cnn2C1O[C@H](CO)[C@@H](O)[C@H]1O (stereo not given in full) |
